Reference: patent US9957214B2, “Multifunctional radical quenchers” (ARIZONA BOARD OF REGENTS ON BEHALF OF ARIZONA STATE …, priority 2012, dated 2018)
Like-named read-outs stand apart in the source and are kept apart here. Blank lines part the entries; values can stand above or below the compound they belong to.

Experiments:
FRDA lymphocytes = experiment: Suppression of lipid peroxidation (C11-BODIPY581/591, FACS) in FRDA lymphocytes treated with diethyl maleate; format: cell-based; settings: DEM; for inhibition at 1 µM / inhibition at 5 µM / inhibition at 10 µM: Lymphocyte, read-out: Scavenging activity (%), suppression of lipid peroxidation
Description: Several methods for assaying lipid peroxidation in vitro have been developed (Kuypers et al. (1987) Biochim Biophys Acta. 25, 266-274; Pap et al. (1999) FEBS Lett. 453, 278-282; Drummen et al. (2002) Free RadicBiol Med. 33, 473-490). Almost all of these methods are based on inhibition of free radical-induced oxidation reactions. A widely used fluorescence assay for lipid peroxidation uses lipid soluble cis-parinaric acid as a probe. cis-parinaric acid loses its fluorescence (λexc/em: 320/432 nm) upon interaction with peroxyl radicals and retains its fluorescence in the presence of radical quenchers. cis-parinaric acid is, however, air sensitive, photolabile and absorbs light in the UV region of the spectrum (at ˜320 nm). […] In practical terms, the results obtained using cis-parinaric as a probe for lipid peroxidation are confounded due to the overlapping of the compounds emission spectra with the cis-parinaric emission spectrum. C11-BODIPY^581/591 Oxidation to Measure Lipid Peroxidation To overcome the problem of spectral overlap using cis-parinaric acid, a fluorescence assay for lipid peroxidation using a lipophilic probe belonging to the BODIPY class of fluorescent dyes was used C11-BODIPY^581/591 (4,4-difluoro-5(4-phenyl-1,3-butadienyl)-4-bora-3a, 4a-diaza-s-indacene-3-propionic acid) fluorescent shifts from red to green upon oxidation. C11-BODIPY^581/591 (Molecular Probes, Eugene, Oreg., USA) stock solution concentrations were determined by measuring the absorption of C11-BODIPY^581/591 at 582 nm using a molar extinction coefficient of 140,000 mol^−1 cm^−1 (R. P. Haugland, (1999) Handbook of Fluorescent Probes and Research Chemicals, Molecular Probes, Inc., Eugene, Oreg.). The lipid peroxidation inducer 2,2′-Azobis (2-amidino-propane dihydrochloride) (AAPH) and the antioxidant compound α-tocopherol (α-TOH) were obtained from Sigma (St. Louis, Mo., USA). Phospholipid bilayers were prepared from 1-stearoyl-2-oleoyl-phosphatidylcholine (SOPC) and 1,2-dilinoleoyl-phosphatidylcholine (DLPC) and were purchased from Avanti® polar lipids, Inc., (Alabaster, Ala., USA). Preparation of Liposomes Phosphotidylcholine (PC) liposomes were prepared as described before (Guey-Shuang et al. (1982) Lipids. 17, 403-413). Briefly, DLPC (25 mg) were dissolved in chloroform and the solvent was removed by nitrogen evaporation (˜2 hours) to give a thin film of PC in a round bottom flask. The lipid film was hydrated with 50 mL of 10 mM Tris-HCl (pH 7.4), 100 mM KCl, shaken and sonicated for 15 seconds. The liposomes obtained were filtered several times through […] membrane filter. Measurement of C11-BODIPY^581/591 Oxidation C11-BODIPY^581/591 was incorporated into liposomes and oxidized by peroxyl radicals derived from the decomposition of AAPH in the presence and absence of compounds. Liposomes (1 mg/mL), suspended in 10 mM Tris-HCl (pH 7.4), 100 mM KCl, were transferred to a quartz 1 mL cuvette and placed in a Varian Cary Eclipse fluorometer (Varian, Cary, N.C.) equipped with a thermostatted cuvette holder at 40° C. Liposomes were pre-incubated for 10 min with 200 nM C11-BODIPY^581/591 to allow their incorporation into the lipid phase of the liposomes. After the addition of AAPH (10 mM) the decay of the red fluorescence was followed at λ exc=570 nm, λ em=600 nm. Relative fluorescence units were normalized to 100% intensity. Results obtained were verified by repeating experiments N=3 independent experiments. Measurement of C11-BODIPY^581/591 Oxidation in Cell Culture A quantitative FACS analysis of lipid peroxidation of FRDA lymphocytes, which had been treated with diethyl maleate following incubation in the presence and absence of the test compounds, was measured as described (Khdour et al. (2011) Pharmaceut. Res. 28, 2896-2909). Briefly, FRDA lymphocytes (5×10^5 cell/mL) were treated with the test compounds at final concentrations of 5 and 10 μM and incubated at 37° C. for 16 h in a humidified atmosphere containing 5% CO2 in air. […]

[1] = test system: Friedreich's ataxia lymphoblast cell line GM15850; experiment: Cytoprotection (trypan blue exclusion assay) of DEM-treated FRDA lymphocytes; format: cell-based; settings: DEM alone 18 ± 10% viability; for viability at 0.1 µM / viability at 0.5 µM / viability at 2.5 µM / viability at 5 µM: Homo sapiens, GM15850, read-out: Cytoprotection (cell viability, % of untreated control)
Method: Cell viability was determined by trypan blue exclusion assay in Friedreich's ataxia lymphoblast cell line GM15850 (Coriell Institute, New Jersey). This technique was used to assess the cytoprotective effects of the tested compounds in cultured cells treated with DEM to induce cell death by GSH depletion. The viability of DEM-treated FRDA cells was determined by their ability to exclude the dye trypan blue. Viable cells exclude trypan blue, whereas non-viable cells take up the dye and stain blue. Briefly, FRDA lymphocytes were grown in RPMI 1640 medium (Gibco) supplemented with 15% fetal calf serum, 2 mM glutamine (HyClone) and 1% penicillin-streptomycin mix (Cellgro). Cells were seeded at a density of 5×10^5 cells/mL and treated with different concentrations of the indicated compounds. Cells were incubated at 37° C. in a humidified atmosphere of 5% CO2 in air for 17 h. After pre-incubation, the cells were treated with 5 mM DEM. Cell viability was determined by staining cells with 0.4% trypan blue using a hemacytometer. At least 500 cells were counted in each experimental group. At the time of assay, <20% of DEM treated cells were viable (trypan blue negative), whereas in non DEM-treated control, >90% cells were viable. Cell viability was expressed as the percentage of control. Data are expressed as means±S.E.M. (n=3).
Cell viability was determined by trypan blue exclusion assay in Friedreich's ataxia lymphoblast cell line GM15850 (Coriell Institute). This technique was used to assess the cytoprotective effects of the compounds in cultured cells treated with diethyl maleate (DEM) to induce cell death by glutathione (GSH) depletion. The viability of DEM-treated FRDA cells was determined by their ability to exclude the dye trypan blue. Viable cells exclude trypan blue, whereas non-viable cells take up the dye and stain blue. […] Benzoquinone analogue 9 afforded greater cyoprotection to FRDA lymphocytes at 5 μM concentration than did the tert-butyl ester 6 (74 vs 50%).

[2] = molecular target: bovine heart mitochondrial complex I (Bos taurus, UniProt P03887+P17694+P42026); experiment: Complex I (NADH-Q1 oxidoreductase) inhibition in submitochondrial particles; format: biochemical
[3] = test system: NADH oxidase (complexes I, III and IV); experiment: NADH oxidase activity (complexes I, III and IV) in submitochondrial particles; format: biochemical, bovine
CEM leukemia cells = experiment: Suppression of ROS production (DCFH-DA flow cytometry) in DEM-treated CEM leukemia cells; format: cell-based; settings: 5 μM; CEM leukemia cells pretreated with DEM
Method: FIG. 1. Flow cytometric analysis of CEM leukemia lymphocytes (gray bars) and FRDA lymphocytes (black bars) stained with dichlorodihydrofluorescein diacetate (DCFH-DA) for 20 min, following pretreatment with the test compounds at 5 μM concentration for 16 h, and subsequent treatment with diethyl maleate (DEM) for 60 or 80 min to induce the production of ROS in CEM and FRDA lymphocytes, respectively. Data shown represent the mean±SEM of two different experiments run as duplicates.
Intracellular ROS production was measured in FRDA lymphocyte cells (GM15850, Coriell Cell Repositories, Camden, N.J.) using the oxidant sensitive fluorescent probe 2,7-dichlorodihydrofluorescein diacetate (DCFH-DA) (Molecular Probes) as described previously (Khdour et al. (2011) Pharm. Res. 28, 2896-2909). One mL of FRDA lymphocyte cells or leukemic CEM cells (5×10^5 cells) were plated in a 24-well plate, treated with the test compounds and incubated at 37° C. for 16 h in a humidified atmosphere containing 5% CO2 in air. Cells were treated with 5 mM diethyl maleate (DEM) for 80 min or 60 min respectively, collected by centrifugation at 300×g for 3 min and then washed with phosphate buffered saline (PBS) (Life Technologies). Cells were resuspended in PBS containing 20 mM glucose and incubated at 37° C. in the dark for […] with 10 μM DCFH-DA. Cells were collected by centrifugation at 300×g for 3 min and then washed with PBS. The samples were analyzed immediately by flow cytometry (C6 Accuri, BD Biosciences, San Jose, Calif.), using a 488 nm excitation laser and the FL1-H channel 530±15 nm emission filter. The generation of ROS, mainly peroxides, was detected as a result of the oxidation of DCFH. In each analysis, 10,000 events were recorded after cell debris was electronically gated out. Results obtained were verified by running duplicates and repeating experiments in three independent runs. Results were expressed as percentage of ROS scavenging activity.
The ability of the synthesized analogues to quench ROS and lipid peroxidation was evaluated in FRDA lymphocytes or leukemic CEM cells. These cells were placed under oxidative stress by depleting them of glutathione (GSH) using diethyl maleate (DEM). Depletion of glutathione by treatment FRDA lymphocytes or leukemic CEM cells with DEM has been used to induce oxidative stress in cellular systems by generation of ROS. Intracellular ROS production was measured using the oxidant sensitive fluorescent probe 2,7-dichlorodihydrofluorescein diacetate (DCFH-DA) (Molecular Probes).

[4] = submitochondrial particles, 30° C.; read-out: Complex I inhibition IC50
[5] = submitochondrial particles, 30° C.; read-out: Complex I inhibition Imax

Chain of bovine heart mitochondrial complex I (P25708 21-464): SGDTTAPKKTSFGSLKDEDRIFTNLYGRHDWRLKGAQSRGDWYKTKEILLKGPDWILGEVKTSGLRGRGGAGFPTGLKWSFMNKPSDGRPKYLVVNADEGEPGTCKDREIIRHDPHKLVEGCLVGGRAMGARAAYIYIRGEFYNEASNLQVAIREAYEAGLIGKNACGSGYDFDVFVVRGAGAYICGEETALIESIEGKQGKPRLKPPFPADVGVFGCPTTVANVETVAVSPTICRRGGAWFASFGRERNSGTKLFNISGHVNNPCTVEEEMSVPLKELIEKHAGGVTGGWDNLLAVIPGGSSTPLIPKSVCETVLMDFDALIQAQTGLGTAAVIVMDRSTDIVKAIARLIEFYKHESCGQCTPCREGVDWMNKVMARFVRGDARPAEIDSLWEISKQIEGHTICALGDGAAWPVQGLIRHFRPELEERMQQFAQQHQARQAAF
Chain of bovine heart mitochondrial complex I (P42026 38-216): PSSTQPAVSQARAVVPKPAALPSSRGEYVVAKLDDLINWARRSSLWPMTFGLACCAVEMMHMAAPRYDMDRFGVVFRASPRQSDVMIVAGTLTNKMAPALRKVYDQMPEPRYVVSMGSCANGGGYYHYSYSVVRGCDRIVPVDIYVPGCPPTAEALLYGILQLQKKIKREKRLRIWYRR
Chain of bovine heart mitochondrial complex I (P17694 34-463): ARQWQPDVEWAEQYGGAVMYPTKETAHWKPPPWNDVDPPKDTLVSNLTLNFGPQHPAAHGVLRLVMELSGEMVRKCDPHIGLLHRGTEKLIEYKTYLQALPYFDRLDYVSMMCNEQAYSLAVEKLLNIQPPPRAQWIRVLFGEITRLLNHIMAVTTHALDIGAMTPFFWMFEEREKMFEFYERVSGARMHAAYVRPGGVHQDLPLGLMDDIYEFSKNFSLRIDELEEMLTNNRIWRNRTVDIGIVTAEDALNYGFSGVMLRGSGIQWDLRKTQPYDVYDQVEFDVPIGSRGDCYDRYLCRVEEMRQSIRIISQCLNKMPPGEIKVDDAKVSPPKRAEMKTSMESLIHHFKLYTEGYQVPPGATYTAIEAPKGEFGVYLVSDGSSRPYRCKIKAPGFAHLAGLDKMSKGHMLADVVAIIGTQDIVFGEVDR
Chain of bovine heart mitochondrial complex I (P15690 24-727, further chain): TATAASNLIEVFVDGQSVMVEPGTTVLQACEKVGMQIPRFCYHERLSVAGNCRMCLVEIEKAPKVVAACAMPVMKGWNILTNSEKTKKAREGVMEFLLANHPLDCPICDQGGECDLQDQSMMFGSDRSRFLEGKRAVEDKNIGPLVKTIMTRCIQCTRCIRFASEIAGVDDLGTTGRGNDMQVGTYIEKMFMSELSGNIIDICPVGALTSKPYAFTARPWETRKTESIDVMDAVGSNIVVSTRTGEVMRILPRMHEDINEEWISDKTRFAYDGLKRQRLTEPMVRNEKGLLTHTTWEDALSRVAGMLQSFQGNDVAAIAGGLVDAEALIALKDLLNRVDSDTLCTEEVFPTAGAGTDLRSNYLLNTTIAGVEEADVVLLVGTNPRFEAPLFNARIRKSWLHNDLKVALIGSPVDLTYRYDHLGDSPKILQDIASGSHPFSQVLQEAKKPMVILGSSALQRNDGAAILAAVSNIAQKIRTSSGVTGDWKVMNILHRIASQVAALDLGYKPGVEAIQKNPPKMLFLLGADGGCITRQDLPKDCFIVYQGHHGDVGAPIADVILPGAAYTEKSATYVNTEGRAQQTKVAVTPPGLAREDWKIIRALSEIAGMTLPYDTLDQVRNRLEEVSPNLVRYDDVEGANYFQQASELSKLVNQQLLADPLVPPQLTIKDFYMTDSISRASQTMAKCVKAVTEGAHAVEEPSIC
Chain of bovine heart mitochondrial complex I (P03887 whole entry): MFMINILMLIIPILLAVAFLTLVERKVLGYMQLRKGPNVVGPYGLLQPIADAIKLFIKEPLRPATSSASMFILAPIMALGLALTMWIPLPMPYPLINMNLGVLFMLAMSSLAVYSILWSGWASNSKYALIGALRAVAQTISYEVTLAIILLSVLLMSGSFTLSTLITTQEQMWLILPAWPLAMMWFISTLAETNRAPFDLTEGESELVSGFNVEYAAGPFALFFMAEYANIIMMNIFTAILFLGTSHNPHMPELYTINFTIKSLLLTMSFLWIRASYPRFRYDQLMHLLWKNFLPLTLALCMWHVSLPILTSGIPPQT
Chain of bovine heart mitochondrial complex I (P42028 37-212, further chain): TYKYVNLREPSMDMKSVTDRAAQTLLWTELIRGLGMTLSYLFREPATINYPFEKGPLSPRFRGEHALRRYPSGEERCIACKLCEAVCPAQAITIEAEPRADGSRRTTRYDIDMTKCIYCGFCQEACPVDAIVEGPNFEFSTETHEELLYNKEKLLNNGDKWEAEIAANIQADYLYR

Structure (SMILES): CCCCCCCCCCCCCC1=C(O)C(=O)C=C(NCCCCCC)C1=O [Compound 19, 5-(hexylamino)-2-hydroxy-3-tridecylcyclohexa-2,5-diene-1,4-dione]
inhibition at 1 µM (FRDA lymphocytes): 2 ± 0.3%
inhibition at 5 µM (FRDA lymphocytes; 5 μM): 27 ± 4.5%
inhibition at 10 µM (FRDA lymphocytes; 10 μM): 38%
melting point: 70 °C (dec.)
viability at 0.1 µM [1]: 18 ± 2.1%
viability at 0.5 µM [1]: 22 ± 2.6%
viability at 2.5 µM [1]: 43 ± 4.4%
viability at 5 µM ([1]; 5 μM): 65 ± 5.2%
IC50 ([2]; read-out: Complex I inhibition IC50; submitochondrial particles, 30° C.): 20 ± 1.7 µM
Emax ([2]; read-out: Complex I inhibition Imax): 77 ± 6.2%
NADH oxidase activity (Complex I, III, IV) % ([3]; 1 μM): 67 ± 6.0%
NADH oxidase activity (Complex I, III, IV) % ([3]; 5 μM): 39 ± 1.0%

melting point: 96 to 97 °C
Structure (SMILES): CCCCCCCCCCCCCC1=C(O)C(=O)C=C(NCCCC(=O)OC(C)(C)C)C1=O [Compound 6, tert-butyl 4-(4-hydroxy-3,6-dioxo-5-tridecylcyclohexa-1,4-dienylamino)butanoate]
inhibition at 5 µM (FRDA lymphocytes; 5 μM): 26 ± 6.7%
inhibition at 10 µM (FRDA lymphocytes; 10 μM): 37 ± 1.4%
viability at 5 µM ([1]; 5 μM): 50%
IC50 [2, 4]: 10 ± 0.6 µM
Emax [2, 5]: 64 ± 13%

melting point: 110 °C (dec.)
Structure (SMILES): CCCCCCCCCCCCCC1=C(OC)C(=O)C=C(NCCCCCC)C1=O [Compound 20, 5-(hexylamino)-2-methoxy-3-tridecylcyclohexa-2,5-diene-1,4-dione]
inhibition at 1 µM (FRDA lymphocytes): 14 ± 1.3%
inhibition at 5 µM (FRDA lymphocytes; 5 μM): 61 ± 7.5%
inhibition at 10 µM (FRDA lymphocytes; 10 μM): 70%
viability at 0.1 µM [1]: 20 ± 3.2%
viability at 0.5 µM [1]: 50 ± 5.2%
viability at 2.5 µM [1]: 66 ± 6.3%
viability at 5 µM ([1]; 5 μM): 80 ± 4%
IC50 [2, 4]: 482 ± 24 µM
Emax [2, 5]: > 85%
NADH oxidase activity (Complex I, III, IV) % ([3]; 1 μM): 74 ± 16%
NADH oxidase activity (Complex I, III, IV) % ([3]; 5 μM): 47 ± 3.0%

melting point: 77 to 78 °C
Structure (SMILES): C=CCCCCCCCCCC1=C(O)C(=O)C=C(NCCCCC=C)C1=O [Compound 37, 5-(hex-5-enylamino)-2-hydroxy-3-(undec-10-enyl)cyclohexa-2,5-diene-1,4-dione]

Structure (SMILES): CCCCCCCCCCCCCC1=C(NCCCC(=O)OCCCC)C(=O)C(C)=C(NCCCC(=O)OCCCC)C1=O [Compound 47, 2,5-bis(butyl 4-aminobutanoate)-3-methyl-6-tridecylcyclohexa-2,5-diene-1,4-dione]
Scavenging activity (%), suppression of ROS production (CEM leukemia cells): 25 ± 11%
Scavenging activity (%), suppression of lipid peroxidation (FRDA lymphocytes; 5 μM): 7 ± 1%
Scavenging activity (%), suppression of lipid peroxidation (FRDA lymphocytes; 10 μM): 19 ± 2^ %
Cytoprotection (cell viability, % of untreated control) ([1]; 1 μM): 9 ± 2%
Cytoprotection (cell viability, % of untreated control) ([1]; 5 μM): 17 ± 3^ %
NADH oxidase activity (Complex I, III, IV) % ([3]; 1 μM): 77 ± 1^ %
NADH oxidase activity (Complex I, III, IV) % ([3]; 5 μM): 68 ± 1^ %
NADH oxidase activity (Complex I, III, IV) % ([3]; 10 μM): 69 ± 2%

melting point: 89 to 90 °C
Structure (SMILES): C=CCCCCCCCCCC1=C(O)C(=O)C=C(OC)C1=O

Structure (SMILES): CCCCCCCCCCCCCC1=C(NCCCC(=O)OC(C)(C)C)C(=O)C(C)=C(NCCCC(=O)OC(C)(C)C)C1=O [Compound 44, 2,5-bis(tert-butyl 4-aminobutanoate)-3-methyl-6-tridecylcyclohexa-2,5-diene-1,4-dione]
Scavenging activity (%), suppression of ROS production (CEM leukemia cells): 0%
Scavenging activity (%), suppression of lipid peroxidation (FRDA lymphocytes; 5 μM): 8 ± 3%
Scavenging activity (%), suppression of lipid peroxidation (FRDA lymphocytes; 10 μM): 13 ± 3^ %
Cytoprotection (cell viability, % of untreated control) ([1]; 1 μM): 15 ± 2%
Cytoprotection (cell viability, % of untreated control) ([1]; 5 μM): 98 ± 6^ %
NADH oxidase activity (Complex I, III, IV) % ([3]; 1 μM): 95 ± 2^ %
NADH oxidase activity (Complex I, III, IV) % ([3]; 5 μM): 92 ± 3^ %
NADH oxidase activity (Complex I, III, IV) % ([3]; 10 μM): 84 ± 3%
